Assay results published in paper PMC5488423, “Prevention of dendritic and synaptic deficits and cognitive impairment with a neurotrophic compound” (Alzheimer's Research & Therapy, 2017).
Residues, ends and D or L forms follow the SMILES beside them.

Legend:
[1] = set-up: method as in PMID 25046994; conditions: cited from earlier work
[2] = set-up: method as in PMID 25046994; conditions: cited from earlier work; remark: listed apart in the source
[3] = set-up: method as in PMID 25046994; conditions: over 30 min; cited from earlier work
[4] = set-up: method as in PMID 25046994; conditions: over 120 min; cited from earlier work
[5] = test system: 3 × Tg-AD mice; experiment: Side effects and safety during chronic dietary treatment; format: in vivo, mouse; conditions: 60 nmol P021/g feed in diet
Experimental: At approximately 3 months of age, the animals were divided into three groups: one group of 3 × Tg-AD-P021 (n = 32) treated with 60 nmol P021/g feed in the diet; a second group of 3 × Tg-AD-vh (n = 35) treated with the same diet but without P021; and a third group of WT (n = 41) treated with the same diet but without P021. P021 was formulated by Research Diets (New Brunswick, NJ, USA). Food consumption was recorded every 2 weeks and body weight every month. The average mouse food consumption was ~2.7 g feed/day.

Q: Which plasma stability [1] does the source give for `CC(=O)N[C@@H](CC(=O)O)C(=O)NCC(=O)NCC(=O)N[C@@H](CC(C)C)C(=O)NC12CC3CC(C1)CC(C(N)=O)(C3)C2` [Peptide P021] (HELM PEPTIDE1{[ac].D.G.G.L.[NC(=O)C12CC3CC(CC(N[*:1])(C3)C1)C2]}$$$$V2.0) here?
A: > 3 h

Q: What about the “blood–brain barrier permeability” value [2] of the same compound?
A: blood–brain barrier permeable

Q: And the “stability in artificial gastric juice” value [3]?
A: > 95%

Q: What about the “stability in intestinal fluid” value [4] of the same compound?
A: ~ 100%

Q: What about the “side effects or safety issues” value ([5]; preclinical study of almost 2 years) of the same compound?
A: did not show any severe side effects or safety issues

Q: And the “weight loss, tumors, or signs of pain” value ([5]; treatment for around 18 months)?
A: did not show any weight loss, tumors, or signs of pain
